The NIST ThermoML archive (doi:10.1021/je501133u)

Assay: xn = mol fraction of the nth substance listed
Settings: 100 kPa, Liquid; for viscosity: Falling or rolling sphere viscometry; for mass density: Vibrating tube method

CCCCCCO [hexan-1-ol] + CCO
Settings | mass density [kg/m3] | viscosity [mPa·s]
293.15 K, x2 = 0 | 818.9 | 5.35
293.15 K, x2 = 0.1001 | 816.7 | 4.67
293.15 K, x2 = 0.2003 | 815.1 | 4.15
293.15 K, x2 = 0.3004 | 813.3 | 3.66
293.15 K, x2 = 0.4006 | 811.6 | 3.19
293.15 K, x2 = 0.4998 | 808.7 | 2.76
293.15 K, x2 = 0.6009 | 806 | 2.41
293.15 K, x2 = 0.7001 | 802.9 | 2.03
293.15 K, x2 = 0.7995 | 799.2 | 1.71
293.15 K, x2 = 0.9001 | 794.9 | 1.43
298.15 K, x2 = 0 | 815.3 | 4.56
298.15 K, x2 = 0.1001 | 813.1 | 4.02
298.15 K, x2 = 0.2003 | 811.5 | 3.6
298.15 K, x2 = 0.3004 | 809.7 | 3.19
298.15 K, x2 = 0.4006 | 807.9 | 2.8
298.15 K, x2 = 0.4998 | 805 | 2.44
298.15 K, x2 = 0.6009 | 802.2 | 2.14
298.15 K, x2 = 0.7001 | 798.9 | 1.81
298.15 K, x2 = 0.7995 | 795.2 | 1.54
298.15 K, x2 = 0.9001 | 790.8 | 1.29
303.15 K, x2 = 0 | 811.7 | 3.9
303.15 K, x2 = 0.1001 | 809.5 | 3.48
303.15 K, x2 = 0.2003 | 807.8 | 3.14
303.15 K, x2 = 0.3004 | 806 | 2.8
303.15 K, x2 = 0.4006 | 804.1 | 2.47
303.15 K, x2 = 0.4998 | 801.2 | 2.17
303.15 K, x2 = 0.6009 | 798.4 | 1.91
303.15 K, x2 = 0.7001 | 795 | 1.63
303.15 K, x2 = 0.7995 | 791.2 | 1.39
303.15 K, x2 = 0.9001 | 786.6 | 1.17
308.15 K, x2 = 0 | 808.1 | 3.36
308.15 K, x2 = 0.1001 | 805.9 | 3.03
308.15 K, x2 = 0.2003 | 804.2 | 2.75
308.15 K, x2 = 0.3004 | 802.3 | 2.47
308.15 K, x2 = 0.4006 | 800.4 | 2.19
308.15 K, x2 = 0.4998 | 797.4 | 1.93
308.15 K, x2 = 0.6009 | 794.5 | 1.71
308.15 K, x2 = 0.7001 | 791.1 | 1.47
308.15 K, x2 = 0.7995 | 787.1 | 1.26
308.15 K, x2 = 0.9001 | 782.5 | 1.07
313.15 K, x2 = 0 | 804.5 | 2.91
313.15 K, x2 = 0.1001 | 802.2 | 2.65
313.15 K, x2 = 0.2003 | 800.5 | 2.42
313.15 K, x2 = 0.3004 | 798.5 | 2.18
313.15 K, x2 = 0.4006 | 796.6 | 1.94
313.15 K, x2 = 0.4998 | 793.6 | 1.73
313.15 K, x2 = 0.6009 | 790.6 | 1.54
313.15 K, x2 = 0.7001 | 787.1 | 1.32
313.15 K, x2 = 0.7995 | 783 | 1.14
313.15 K, x2 = 0.9001 | 778.2 | 0.97
318.15 K, x2 = 0 | 800.8 | 2.54
318.15 K, x2 = 0.1001 | 798.5 | 2.33
318.15 K, x2 = 0.2003 | 796.7 | 2.14
318.15 K, x2 = 0.3004 | 794.8 | 1.94
318.15 K, x2 = 0.4006 | 792.7 | 1.73
318.15 K, x2 = 0.4998 | 789.7 | 1.55
318.15 K, x2 = 0.6009 | 786.6 | 1.39
318.15 K, x2 = 0.7001 | 783 | 1.2
318.15 K, x2 = 0.7995 | 778.9 | 1.04
318.15 K, x2 = 0.9001 | 774 | 0.89
323.15 K, x2 = 0 | 797.1 | 2.23
323.15 K, x2 = 0.1001 | 794.8 | 2.06
323.15 K, x2 = 0.2003 | 793 | 1.9
323.15 K, x2 = 0.3004 | 790.9 | 1.73
323.15 K, x2 = 0.4006 | 788.9 | 1.55
323.15 K, x2 = 0.4998 | 785.7 | 1.39
323.15 K, x2 = 0.6009 | 782.6 | 1.25
323.15 K, x2 = 0.7001 | 779 | 1.09
323.15 K, x2 = 0.7995 | 774.7 | 0.94
323.15 K, x2 = 0.9001 | 769.7 | 0.81
328.15 K, x2 = 0 | 793.4 | 1.97
328.15 K, x2 = 0.1001 | 791 | 1.82
328.15 K, x2 = 0.2003 | 789.2 | 1.69
328.15 K, x2 = 0.3004 | 787.1 | 1.54
328.15 K, x2 = 0.4006 | 784.9 | 1.39
328.15 K, x2 = 0.4998 | 781.8 | 1.25
328.15 K, x2 = 0.6009 | 778.6 | 1.13
328.15 K, x2 = 0.7001 | 774.8 | 0.99
328.15 K, x2 = 0.7995 | 770.4 | 0.86
328.15 K, x2 = 0.9001 | 765.3 | 0.75
